Assay [1] addresses T1, recombinant human MALT1 (Homo sapiens, UniProt Q9UDY8).
T1 construct: to form a human MALT1 (340-789aa) dimer; His tag (from pET28a, N-terminal) (N); yeast GCN4 leucine zipper (251-281aa), fusion partner for dimerisation (N); translates to GSGSGS), between GCN4 zipper and MALT1 (N); His tag (C-terminal) (C); made in house; host or cells: E. coli BL21 (DE3)
Briefly: Measurement of MALT1 enzyme inhibitory activity. The class given is biochemical. Particulars: read-out: MALT1 enzyme inhibition rate (%) at 3 μM compound. As to the method:
On the human MALT1 gene, PCR was carried out using GC-030-[…] (pENTR221/MALT1, GeneCopoeia) as a template with primers having BamH I restriction enzyme at the N-terminal and Not I restriction enzyme at the C-terminal to form a human MALT1 (340-789aa) dimer. […] Both of the obtained fragments were treated with the restriction enzymes, and inserted between Nde I and Not I of a pET28a (Novagen) vector to yield a recombinant human MALT1 protein expression vector pET28a/His-LZ-hMALT1v1 (340-789)-His. The recombinant human MALT1 protein was prepared by transforming the expression plasmid prepared as above with ECOS Competent E. coli BL21 (DE3) (Nippon Gene Co., Ltd.). Escherichia coli obtained by transformation was inoculated into 300 mL of LB medium (1% tryptone, 0.5% yeast extract, 0.5% sodium chloride, 0.01% ampicillin) and cultured at 30° C. for 16 hours. […] Furthermore, culturing was carried out for 16 hours to induce expression of human MALT1 protein. After completion of the culture, the culture solution was centrifuged at 5,000 rpm for 10 minutes. […] This crushed liquid was centrifuged (15,300×G, 30 min, TOMY MX-301), and the obtained supernatant was passed through and adsorbed to a Ni-NTA Superflow (QIAGEN) column previously equilibrated with 50 mM Tris-HCl pH 8.0, 300 mM NaCl, 5 mM DTT and 10% glycerol, followed by elution in a buffer containing 50 mM Tris-HCl pH 8.0, 300 mM NaCl, 5 mM DTT, 10% glycerol and 250 mM imidazole. […] The prepared protein was stored at -30° C., and the protein concentration was measured with a BCA Protein Assay Kit (PIERCE) using BSA as a standard. […] Subsequently, 2 μL of a purified recombinant human MALT1 enzyme solution was added, followed by incubation for 60 minutes at room temperature. To the mixture were added 2 μL of a substrate solution (75 μM Ac-LRSR-AFC (SM Biochemicals), 20 mM HEPES (Dojin Laboratories), 10 mM KCl (Wako Pure Chemical Industries, Ltd.), 1.5 mM MgCl2 (Sigma-Aldrich), 1 mM EDTA (pH 8.0) (Nippon Gene Co., Ltd.), 0.01% Triton X-100 (Sigma-Aldrich) and 1 mM DTT (Wako Pure Chemical Industries, Ltd.), followed by incubation for 60 minutes at room temperature. The fluorescence values of excitation 400 nm and emission 485 nm immediately after substrate addition and after enzymatic reaction were measured with a plate reader Envision (PerkinElmer), and the fluorescence values increased by enzymatic reaction were used for calculation of the inhibition rate (%).

The subject of assay [2] is OCI-Ly3 cells. Briefly: Measurement of growth inhibitory activity using OCI-Ly3 cells. Type of assay: cell-based. The note with it: Homo sapiens, 144 h, 3 μm compound, 6 days, read-out: Cell growth inhibition rate (%) at 3 μm compound. As to the method:
OCI-Ly3 cells were seeded in a cell culture medium IMDM (Fujifilm Wako Pure Chemical Corporation) containing 20% FCS (fetal calf serum, Thermo Fisher Scientific) and monothioglycerol (Fujifilm Wako Pure Chemical Corporation) so as to be at 1.25×10^3 cells/well on a 96-well plate. Cell Titer-Glo solution (Promega) was added to cells to which the test compound had not been added, followed by stirring at room temperature for 15 minutes. Subsequently, the luminescence value was measured with Envision (PerkinElmer) on the day of seeding. Cells to which the test compound dissolved in dimethyl sulfoxide (Fujifilm Wako Pure Chemical Corporation) had been added were allowed to stand in a CO2 incubator (37° C.) for 6 days. Subsequently, the luminescence value was measured in the same manner. The inhibition rate (%) of the test compound on OCI-Ly3 cell growth was calculated by the following formula. Cell growth inhibition rate (%)=(1−(Luminescent value on day 6 of test compound treatment−Luminescent value before test compound treatment)/(Luminescent value on day 6 without compound addition−Luminescent value before compound treatment))×100

Structures are written as SMILES.

T1 sequence (Q9UDY8 340-789): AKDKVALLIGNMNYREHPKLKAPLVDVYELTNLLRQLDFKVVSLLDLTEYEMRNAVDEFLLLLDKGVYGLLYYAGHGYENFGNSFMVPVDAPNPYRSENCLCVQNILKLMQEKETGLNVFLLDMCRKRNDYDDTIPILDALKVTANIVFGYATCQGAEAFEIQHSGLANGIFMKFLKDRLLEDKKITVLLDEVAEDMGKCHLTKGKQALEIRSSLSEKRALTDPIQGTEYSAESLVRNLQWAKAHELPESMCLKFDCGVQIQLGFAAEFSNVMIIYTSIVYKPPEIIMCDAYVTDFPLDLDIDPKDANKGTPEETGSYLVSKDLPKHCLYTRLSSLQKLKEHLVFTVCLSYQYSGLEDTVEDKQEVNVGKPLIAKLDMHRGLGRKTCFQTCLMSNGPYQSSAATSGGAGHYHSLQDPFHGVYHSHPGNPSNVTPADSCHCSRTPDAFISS
T1 sequence (P03069 251-281 partner limits assumed): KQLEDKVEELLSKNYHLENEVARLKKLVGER

As for `CO[C@@H](C)c1c(NC(=O)Nc2cnc(OC(F)F)c(Br)c2)cnn2cc(C)nc12` [Example 35, (S)-N-(5-Bromo-6-(difluoromethoxy)pyridin-3-yl)-N′-(8-(1-methoxyethyl)-2-methylimidazo[1,2-b]pyridazin-7-yl)urea], the results for the inhibition at 3 µM in assay [1] and in assay [2] were 105% and 95%, respectively.

With `CC(C)c1c(NC(=O)Nc2cnc(OC(F)F)c(Cl)c2)cnn2cc(Cl)nc12` [Example 8, N-(5-Chloro-6-(difluoromethoxy)pyridin-3-yl)-N′-(2-chloro-8-(propan-2-yl)imidazo[1,2-b]pyridazin-7-yl)urea], in assay [1], the inhibition at 3 µM was 94%. For the compound `CC(c1c(NC(=O)Nc2cnc(OC(F)F)c(Cl)c2)cnn2cc(Cl)nc12)C(F)(F)F` (stereo not drawn) [Example 173, N-(5-Chloro-6-(difluoromethoxy)pyridin-3-yl)-N′-(2-chloro-8-(1,1,1-trifluoropropan-2-yl)imidazo[1,2-b]pyridazin-7-yl)urea], the inhibition at 3 µM in assay [1] came out at 99%; in assay [2], 85%.

Regarding `CO[C@@H](C)c1c(NC(=O)Nc2cnc(-n3nccn3)c(C(F)F)c2)cnn2cc(C)nc12` [Example 31, (S)-N-(5-(Difluoromethyl)-6-(2H-1,2,3-triazol-2-yl)pyridin-3-yl)-N′-(8-(1-methoxyethyl)-2-methylimidazo[1,2-b]pyridazin-7-yl)urea], the inhibition at 3 µM was 103% in assay [1] and 96% in assay [2]. For `COc1nccc2ncc(NC(=O)Nc3cnc(-n4nccn4)c(C(F)(F)F)c3)c(C(C)OC)c12` (stereo not drawn) [Example 255, N-(5-Methoxy-4-(1-methoxyethyl)-1,6-naphthyridin-3-yl)-N'-(6-(2H-1,2,3-triazol-2-yl)-5-(trifluoromethyl)pyridin-3-yl)urea] the same measures were 97% and 99%. Turning to `CO[C@@H](C)c1c(NC(=O)Nc2cnc(-n3nccn3)c(C(F)(F)F)c2)cnn2cc(C)nc12` [Example 6, (S)—N-(8-(1-Methoxyethyl)-2-methylimidazo[1,2-b]pyridazin-7-yl)-N′-(6-(2H-1,2,3-triazol-2-yl)-5-(trifluoromethyl)pyridin-3-yl)urea], the inhibition at 3 µM in assay [1] came to 108%; in assay [2], 99%. Regarding `CO[C@@H](C)c1c(NC(=O)Nc2cnc(OC(F)F)c(C#N)c2)cnn2cc(C)nc12` [Example 5, (S)—N-(5-Cyano-6-(difluoromethoxy)pyridin-3-yl)-N′-(8-(1-methoxyethyl)-2-methylimidazo[1,2-b]pyridazin-7-yl)urea], the inhibition at 3 µM in assay [1] is 99%; in assay [2] it was 93%. For `COC(C)c1c(NC(=O)Nc2cnc(-n3nccn3)c(Cl)c2)cnn2cc(Cl)nc12` (stereo not drawn) [Example 133, N-(2-Chloro-8-(1-methoxyethyl)imidazo[1,2-b]pyridazin-7-yl)-N′-(5-chloro-6-(2H-1,2,3-triazol-2-yl)pyridin-3-yl)urea] the same measures were 99% and 98%. For `COC(C)c1c(NC(=O)Nc2cnc(-n3nccn3)c(C(F)(F)F)c2)cnc2ccc(=O)n(C)c12` (stereo not drawn) [Example 269, N-(4-(1-Methoxyethyl)-5-methyl-6-oxo-5,6-dihydro-1,5-naphthyridin-3-yl)-N'-(6-(2H-1,2,3-triazol-2-yl)-5-(trifluoromethyl)pyridin-3-yl)urea] the same measures were 99% and 95%.

As to `COCc1cnn(-c2ncc(NC(=O)Nc3cnn4cc(C)nc4c3[C@H](C)OC)cc2Cl)n1` [Example 36, (S)-N-[5-Chloro-6-(4-(methoxymethyl)-2H-1,2,3-triazol-2-yl)pyridin-3-yl)-N′-(8-(1-methoxyethyl)-2-methylimidazo[1,2-b]pyridazin-7-yl)urea], the inhibition at 3 µM in assay [1] was found to be 101%; in assay [2], 96%. As for `COc1ncc(NC(=O)Nc2cnc3ccn(C)c(=O)c3c2C(C)OC)cc1Cl` (stereo not drawn) [Example 270, N-(5-Chloro-6-methoxypyridin-3-yl)-N'-(4-(1-methoxyethyl)-6-methyl-5-oxo-5,6-dihydro-1,6-naphthyridin-3-yl)urea], the inhibition at 3 µM came out at 94% in assay [1] and 40% in assay [2]. On to `COC(C)(C)c1c(NC(=O)Nc2cnc(-n3nccn3)c(Cl)c2)cnn2cc(C)nc12` [Example 7, N-(5-Chloro-6-(2H-1,2,3-triazol-2-yl)pyridin-3-yl)-N′-(8-(2-methoxypropan-2-yl)-2-methylimidazo[1,2-b]pyridazin-7-yl)urea], for which the inhibition at 3 µM in assay [1] is 98%; in assay [2], 95%. With `COC(C)c1c(NC(=O)Nc2cnc(OC(F)F)c(Cl)c2)cnc2ccc(Cl)nc12` (stereo not drawn) [Example 59, N-(5-Chloro-6-(difluoromethoxy)pyridin-3-yl)-N′-(6-chloro-4-(1-methoxyethyl)-1,5-naphthyridin-3-yl)urea], the inhibition at 3 µM in assay [1] was determined as 95%; in assay [2], 98%. For `COC(C)c1c(NC(=O)Nc2cnc(-n3nccn3)c(C(F)(F)F)c2)cnc2ccnc(C)c12` (stereo not drawn) [Example 261, N-(4-(1-Methoxyethyl)-5-methyl-1,6-naphthyridin-3-yl)-N'-(6-(2H-1,2,3-triazol-2-yl)-5-(trifluoromethyl)pyridin-3-yl)urea] the same measures were 98% and 88%. As for `CO[C@@H](C)c1c(NC(=O)Nc2cc(C(F)(F)F)c(-n3nccn3)nc2C)cnc2ccc(Cl)nc12` [Example 66, (S)-N-(6-Chloro-4-(1-methoxyethyl)-1,5-naphthyridin-3-yl)-N′-(2-methyl-6-(2H-1,2,3-triazol-2-yl)-5-(trifluoromethyl)pyridin-3-yl)urea], the inhibition at 3 µM in assay [1] is 99%; in assay [2] it was 100%.

Regarding `CO[C@@H](C)c1c(NC(=O)Nc2cc(C(F)(F)F)c(-n3nccn3)nc2C)cnn2cc(C)nc12` [Example 22, (S)-N-(8-(1-Methoxyethyl)-2-methylimidazo[1,2-b]pyridazin-7-yl)-N′-(2-methyl-6-(2H-1,2,3-triazol-2-yl)-5-(trifluoromethyl)pyridin-3-yl)urea], the inhibition at 3 µM in assay [1] amounted to 104%; in assay [2], 102%.

In the case of `Cc1cn2ncc(NC(=O)Nc3cnc(-n4nccn4)c(Cl)c3)c(C(C)C)c2n1` [Example 9, N-(5-Chloro-6-(2H-1,2,3-triazol-2-yl)pyridin-3-yl)-N′-(2-methyl-8-(propan-2-yl)imidazo[1,2-b]pyridazin-7-yl)urea], the inhibition at 3 µM in assay [1] and in assay [2] was 99% each time.

Broadly, the inhibition is the relative decrease from the control value, in per cent.

These data come from US11230545B2, “Heterocyclic compound” (Takeda Pharmaceutical Company Limited, priority 2018, dated 2022).
